O=C(O)/C=C/c1cccc(O)c1
solubility (mole fraction)
Details | in ethanol | in ethyl acetate | in isobutanol | in isopropanol | in methanol | in methyl acetate | in n-butanol | in n-propanol | in n-propyl acetate
293.15 K | 0.0594 | 0.0177 | 0.0317 | 0.0611 | 0.0516 | 0.0189 | 0.0474 | 0.0493 | 0.0155
298.15 K | 0.0632 | 0.0201 | 0.0351 | 0.0662 | 0.0557 | 0.0212 | 0.0513 | 0.0533 | 0.0184
303.15 K | 0.0687 | 0.0228 | 0.0397 | 0.0724 | 0.0611 | 0.0239 | 0.0566 | 0.0585 | 0.0212
308.15 K | 0.0742 | 0.0256 | 0.0449 | 0.0794 | 0.0669 | 0.0276 | 0.0617 | 0.064 | 0.0236
313.15 K | 0.0802 | 0.0294 | 0.0502 | 0.0859 | 0.0731 | 0.0315 | 0.0677 | 0.0701 | 0.0269
318.15 K | 0.087 | 0.0329 | 0.0561 | 0.0933 | 0.0801 | 0.0358 | 0.0741 | 0.0766 | 0.0302
323.15 K | 0.0949 | 0.0377 | 0.0628 | 0.101 | 0.0887 | 0.0402 | 0.0806 | 0.0842 | 0.035
328.15 K | 0.103 | 0.0438 | 0.0706 | 0.109 | 0.0995 | 0.0458 | 0.0887 | 0.093 | 0.041
333.15 K | 0.114 | 0.0489 | 0.0802 | 0.12 | 0.113 | – | 0.0989 | 0.104 | 0.0471

From BigSolDB 2.1
